Measurements reported in article PMC8868332, “Creating Robust Antimicrobial Materials with Sticky Tyrocidines” (Antibiotics, 2022).
Where no end group is shown, it is not given here.

Experiments:
L. monocytogenes = conditions: cited from earlier work
Source text: Table 2 Summary of the compounds used to compare with the Trc in creating robust non-covalent antimicrobial materials. | column: Minimum Inhibitory Concentration (μg/mL) / L. monocytogenes

Escherichia coli K12 = assay: Resazurin assay of surface activity of peptide-treated cellulose; assay type: cell-based; conditions: cellulose filters, 5.0 µg compound offered per 0.28 cm^2; normalised to untreated cellulose; Figure 6B, three biological and four technical repeats
Description: (§1) An aqueous solution of antimicrobial compound (100 µL of 50.0 µg/mL; 5% v/v acetonitrile) was incubated for two hours with the base material punch (0.28 cm^2), ensuring that 5.0 µg of compound was available for binding. Following the incubation, the antimicrobial compound solution was removed, and the samples washed twice with 100 µL sterile analytical quality water and dried in a 40 °C oven for 2 h. Treatment conditions were chosen to imitate large scale treatment/creation of packaging materials, such as aqueous solutions, followed by a drying step.
The antimicrobial activity of the Trc-containing materials and films were determined by a developed resazurin assay. Listeria monocytogenes B73 was streaked out from freezer stocks onto BHI agar plates (Brain Heart Infusion; 1.5% m/v agar) and incubated for 48 h at 37 °C until colonies were viable. Escherichia coli K12 was streaked out from freezer stocks onto LB plates (1% m/v NaCl, 1% m/v tryptone, 0.5% m/v yeast extract, 1.5% m/v agar in water) and incubated at 37 °C for 24 h. Starter cultures were prepared, by inoculating 1 mL medium with 3–5 colonies and growing the cells overnight at 37 °C at an angle, shaking at 150 RPM. […] This culture was then pipetted (10 µL) onto the treated and untreated materials in a 96-well assay plate and incubated for one hour at 37 °C. Following the incubation, 90 µL PBS (phosphate buffered saline; 0.8% m/v NaCl, 0.04% m/v KCl, 0.144% m/v Na2HPO4, 0.02% m/v KH2PO4; pH 7.4), and 10 µL resazurin dye (0.3 mg/mL in PBS) was added, followed by a further incubation at 37 °C. The conversion of the resazurin was measured at Ex530 and Em590 after 30 min for L. monocytogenes and 90 min for E. coli using the Tecan Spark 10 M Multimode Microplate Reader and controlled by the Spark Control^TM software, both provided by Tecan Group Ltd. (Mennedorf, Switzerland). […] The activity of the material was determined in terms of percentage inhibition by using the acquired fluorescence readings (F), with the following Equation: (1) %Inhibition of Target organism=100−(F of well−F of average blank)×100/(F of growth control−F of average blank).

[1] = general character summarised in Table 2; no reference given; cited from earlier work
Source text: Table 2 Summary of the compounds used to compare with the Trc in creating robust non-covalent antimicrobial materials. | column: Character

E. coli = conditions: cited from earlier work
Source text: Table 2 Summary of the compounds used to compare with the Trc in creating robust non-covalent antimicrobial materials. | column: Minimum Inhibitory Concentration (μg/mL) / E. coli

[2] = test system: Listeria monocytogenes B73; assay: Resazurin assay of surface activity of peptide-treated materials; assay type: cell-based; conditions: cellulose filters, 5.0 µg compound offered per 0.28 cm^2; normalised to untreated cellulose; Figure 6A, three biological and four technical repeats
Description: as §1
The antimicrobial activity of the Trc-containing materials and films were determined by a developed resazurin assay. […] The conversion of the resazurin was measured at Ex530 and Em590 after 30 min for L. monocytogenes and 90 min for E. coli using the Tecan Spark 10 M Multimode Microplate Reader and controlled by the Spark Control^TM software, both provided by Tecan Group Ltd. (Mennedorf, Switzerland). […] The activity of the material was determined in terms of percentage inhibition by using the acquired fluorescence readings (F), with the following Equation: (1) %Inhibition of Target organism=100−(F of well−F of average blank)×100/(F of growth control−F of average blank).

Compound | Minimum Inhibitory Concentration L. monocytogenes (L. monocytogenes) | % Inhibition of E. coli by peptide-treated cellulose (Escherichia coli K12) | Haemolytic character (Character) [1] | Solubility (Character) [1] | Minimum Inhibitory Concentration E. coli (E. coli) | % Inhibition of L. monocytogenes by peptide-treated cellulose [2] [%]
CNC(C)C1CCC(N)C(OC2C(N)CC(N)C(OC3OCC(C)(O)C(NC)C3O)C2O)O1 (stereo not drawn) [Gentamicin] | 0.5–4.0 [91, 92] μg/mL |  |  |  |  | 
Leucocin A (KYYGNGVHCTKSGCSVNWGEAFSAGVHRLANGGNGFW; ends and bridges not checked; cysteine pairing not given here; UniProt P34034 25-61, looked up) [37-mer cationic, amphipathic disulphide-bonded bacteriocin from Leuconostoc gelidum UAL187] | 0.98–1.98 [87] μg/mL | low levels of inhibition | non-haemolytic | water-soluble |  | 
Magainin 2 |  | “negative” inhibition |  |  | 10–50 [85] μg/mL | 
Melittin | 0.315 ± 0.008 [88] μg/mL | low levels of inhibition | haemolytic | water-soluble | 15–42.5 [89, 90] μg/mL | 
PGLa |  | “negative” inhibition |  |  | 10–50 [86] μg/mL | 
gramicidin S [GS] | 11 ± 0.20 [34] μg/mL | full inhibition |  |  | 3–12.5 [84] μg/mL | 100
